Source: US8685977B2, “Chemical compounds” (Pfizer Limited, priority 2010, dated 2014)

Biological target: T1, Nav1.7 (or SCN9A) channel (Homo sapiens, UniProt Q15858)
T1 construct: expressed in transfected cells
Test: Nav1.7 PatchXpress 7000 automated electrophysiology assay (HEK cells stably expressing hSCN9A)
Assay type: cell-based
Conditions: voltage-clamped at V1/2 of inactivation, read-out: Nav1.7 EIC50
Summary of the method: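 Automated whole-cell clamp (PatchXpress) of HEK cells stably expressing hSCN9A, at 22-24 °C, in extracellular buffer at pH 7.4. Cells were held at the measured V1/2 of inactivation, then stepped to 0 mV for 20 ms. Single-concentration % inhibition gave EIC50 = concentration × (100 − %inhibition)/%inhibition, excluding <20% or >80%.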

T1 sequence (Q15858 whole entry): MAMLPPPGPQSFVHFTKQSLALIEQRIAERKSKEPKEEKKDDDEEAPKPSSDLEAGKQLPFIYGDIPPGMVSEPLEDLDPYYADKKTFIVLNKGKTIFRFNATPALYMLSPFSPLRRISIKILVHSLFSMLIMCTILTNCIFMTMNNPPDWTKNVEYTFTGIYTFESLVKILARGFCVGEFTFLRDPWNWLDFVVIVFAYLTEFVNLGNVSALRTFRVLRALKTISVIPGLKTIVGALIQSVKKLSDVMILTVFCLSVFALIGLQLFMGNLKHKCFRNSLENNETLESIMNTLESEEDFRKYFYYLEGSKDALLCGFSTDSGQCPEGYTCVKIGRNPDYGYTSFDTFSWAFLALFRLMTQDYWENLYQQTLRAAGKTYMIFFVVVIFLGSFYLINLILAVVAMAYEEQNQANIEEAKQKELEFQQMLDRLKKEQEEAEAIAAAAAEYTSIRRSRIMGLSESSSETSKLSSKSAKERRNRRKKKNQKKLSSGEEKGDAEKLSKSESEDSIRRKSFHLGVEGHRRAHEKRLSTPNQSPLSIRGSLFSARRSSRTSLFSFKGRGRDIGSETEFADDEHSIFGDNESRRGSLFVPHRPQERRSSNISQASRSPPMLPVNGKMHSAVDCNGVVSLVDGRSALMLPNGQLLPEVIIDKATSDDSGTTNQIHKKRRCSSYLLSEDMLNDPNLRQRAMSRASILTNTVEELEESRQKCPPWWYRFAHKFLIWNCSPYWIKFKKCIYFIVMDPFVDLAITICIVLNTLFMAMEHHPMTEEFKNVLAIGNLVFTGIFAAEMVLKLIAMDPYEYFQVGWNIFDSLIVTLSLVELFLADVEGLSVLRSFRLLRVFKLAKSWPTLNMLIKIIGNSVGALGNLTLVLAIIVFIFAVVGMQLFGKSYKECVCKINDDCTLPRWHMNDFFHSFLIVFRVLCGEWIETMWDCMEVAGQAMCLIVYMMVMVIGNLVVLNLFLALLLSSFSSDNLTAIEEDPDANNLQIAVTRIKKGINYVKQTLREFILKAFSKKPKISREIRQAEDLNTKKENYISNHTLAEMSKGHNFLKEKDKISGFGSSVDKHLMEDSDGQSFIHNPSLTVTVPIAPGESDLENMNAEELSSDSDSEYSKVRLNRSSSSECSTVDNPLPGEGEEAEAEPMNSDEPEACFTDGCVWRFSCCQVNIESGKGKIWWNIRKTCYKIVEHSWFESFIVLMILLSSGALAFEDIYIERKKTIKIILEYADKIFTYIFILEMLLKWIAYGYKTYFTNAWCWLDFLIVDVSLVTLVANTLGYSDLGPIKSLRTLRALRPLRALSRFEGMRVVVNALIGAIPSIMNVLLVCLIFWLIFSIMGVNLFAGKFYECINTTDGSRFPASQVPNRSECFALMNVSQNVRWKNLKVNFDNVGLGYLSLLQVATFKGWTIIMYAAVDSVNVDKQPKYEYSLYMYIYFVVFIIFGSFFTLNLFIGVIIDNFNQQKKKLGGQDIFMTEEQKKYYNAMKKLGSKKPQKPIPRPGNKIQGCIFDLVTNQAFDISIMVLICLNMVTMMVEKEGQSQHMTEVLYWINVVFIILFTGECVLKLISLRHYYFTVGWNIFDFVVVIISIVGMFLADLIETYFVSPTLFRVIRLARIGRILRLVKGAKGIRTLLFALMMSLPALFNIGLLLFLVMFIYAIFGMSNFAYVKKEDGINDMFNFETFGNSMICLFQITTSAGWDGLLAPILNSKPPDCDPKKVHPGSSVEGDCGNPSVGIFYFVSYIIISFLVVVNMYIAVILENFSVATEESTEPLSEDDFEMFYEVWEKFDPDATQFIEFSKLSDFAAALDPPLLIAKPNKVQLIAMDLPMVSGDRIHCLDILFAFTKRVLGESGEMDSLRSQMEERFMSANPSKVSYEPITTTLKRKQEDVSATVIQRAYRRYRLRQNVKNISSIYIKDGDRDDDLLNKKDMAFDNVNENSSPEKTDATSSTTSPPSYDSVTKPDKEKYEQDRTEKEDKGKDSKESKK

`CS(=O)(=O)NC(=O)c1cc(F)c(Oc2c(F)cccc2Cl)cc1F` [Example 91, 4-(2-chloro-6-fluorophenoxy)-2,5-difluoro-N-(methylsulfonyl)benzamide] and `CS(=O)(=O)NC(=O)c1cc(F)c(Oc2cccc(Cl)c2F)cc1F` [Example 149, 4-(3-chloro-2-fluorophenoxy)-2,5-difluoro-N-(methylsulfonyl)benzamide] cannot be ordered by IC50: greater than 3000 nM for the first, greater than 1000 nM for the second.

`COc1cc(F)cc(Oc2cc(F)c(C(=O)NS(C)(=O)=O)cc2F)c1` [Example 92, 2,5-difluoro-4-(3-fluoro-5-methoxyphenoxy)-N-(methylsulfonyl)benzamide] and `COc1cccc(Oc2cc(F)c(C(=O)NS(C)(=O)=O)cc2F)c1` [Example 134, 2,5-difluoro-4-(3-methoxyphenoxy)-N-(methylsulfonyl)benzamide] cannot be ordered by IC50: greater than 3000 nM for the first, greater than 3000 nM for the second.

`CS(=O)(=O)NC(=O)c1cc(Cl)c(Oc2ccc3ccccc3c2)cc1F` [Example 285, 5-chloro-2-fluoro-N-(methylsulfonyl)-4-(2-naphthyloxy)benzamide] and `CS(=O)(=O)NC(=O)c1cc(Cl)c(Oc2ccc(Cl)c(Cl)c2)cc1F` [Example 2, 5-Chloro-4-(3,4-dichlorophenoxy)-2-fluoro-N-(methylsulfonyl)benzamide] are within 1.5-fold of each other in IC50: 57 nM for the first, 64 nM for the second.

`CS(=O)(=O)NC(=O)c1ccc(Oc2ccc(Cl)c(Cl)c2)c(C(F)(F)F)c1` [Example 27, 4-(3,4-dichlorophenoxy)-N-(methylsulfonyl)-3-(trifluoromethyl)benzamide] and `CS(=O)(=O)NC(=O)c1ccc(Oc2ccc(Cl)c(Cl)c2)c(Cl)c1` [Example 82, 3-chloro-4-(3,4-dichlorophenoxy)-N-(methylsulfonyl)benzamide] are within 1.5-fold of each other in IC50: 190 nM for the first, 140 nM for the second.

`CS(=O)(=O)NC(=O)c1cc(F)c(Oc2ccc(F)cc2)cc1F` [Example 131, 2,5-difluoro-4-(4-fluorophenoxy)-N-(methylsulfonyl)benzamide] and `CS(=O)(=O)NC(=O)c1cc(F)c(Oc2ccc(Cl)c(F)c2)cc1F` [Example 143, 4-(4-chloro-3-fluorophenoxy)-2,5-difluoro-N-(methylsulfonyl)benzamide] are within 1.5-fold of each other in IC50: 3800 nM for the first, 4700 nM for the second.

`Cc1cc(F)ccc1Oc1cc(F)c(C(=O)NS(C)(=O)=O)cc1F` [Example 154, 2,5-difluoro-4-(4-fluoro-2-methylphenoxy)-N-(methylsulfonyl)benzamide] and `Cc1cc(Cl)ccc1Oc1cc(F)c(C(=O)NS(C)(=O)=O)cc1F` [Example 102, 4-(4-chloro-2-methylphenoxy)-2,5-difluoro-N-(methylsulfonyl)benzamide] cannot be ordered by IC50: greater than 3000 nM for the first, 3700 nM for the second.

Going from `CCc1cc(C(=O)NS(C)(=O)=O)ccc1Oc1ccc(Cl)c(Cl)c1` [Example 4, 4-(3,4-Dichlorophenoxy)-3-ethyl-N-(methylsulfonyl)benzamide] to `CCc1cc(F)ccc1Oc1ccc(C(=O)NS(C)(=O)=O)cc1` [Example 35, 4-(2-ethyl-4-fluorophenoxy)-N-(methylsulfonyl)benzamide], the IC50 rises from 250 nM to 11000 nM (44-fold).

Compared with `O=C(NS(=O)(=O)c1ccccc1)c1cc(F)c(Oc2ccc(Cl)c(C(F)(F)F)c2)cc1F` [Example 57, 4-[4-chloro-3-(trifluoromethyl)phenoxy]-2,5-difluoro-N-(phenylsulfonyl)benzamide], `CS(=O)(=O)NC(=O)c1cc(F)c(Oc2ccc(Cl)c(C(F)(F)F)c2)cc1F` [Example 75, 4-(4-chloro-3-(trifluoromethyl)phenoxy)-2,5-difluoro-N-(methylsulfonyl)benzamide] is 2-fold lower in IC50: 920 nM for the first, 450 nM for the second.

Going from `Cc1ccc(Oc2ccc(C(=O)NS(C)(=O)=O)cc2)cc1Cl` [Example 198, 4-(3-chloro-4-methylphenoxy)-N-(methylsulfonyl)benzamide] to `Cc1ccc(C)c(Oc2ccc(C(=O)NS(C)(=O)=O)cc2)c1` [Example 162, 4-(2,5-dimethylphenoxy)-N-(methylsulfonyl)benzamide], the IC50 rises from 1400 nM to 28000 nM (20-fold). The first is the more potent here.

`CS(=O)(=O)NC(=O)c1ccc(Oc2cccc(F)c2)c(Cl)c1` [Example 262, 3-chloro-4-(3-fluorophenoxy)-N-(methylsulfonyl)benzamide] and `Cc1cccc(Oc2ccc(C(=O)NS(C)(=O)=O)cc2Cl)c1` [Example 250, 3-chloro-4-(3-methylphenoxy)-N-(methylsulfonyl)benzamide] are within 1.5-fold of each other in IC50: 1100 nM for the first, 1400 nM for the second.

`CC(C)Oc1ccccc1Oc1cc(F)c(C(=O)NS(C)(=O)=O)cc1F` [Example 90, 2,5-difluoro-4-(2-isopropoxyphenoxy)-N-(methylsulfonyl)benzamide] and `CS(=O)(=O)NC(=O)c1cc(F)c(Oc2ccccc2F)cc1F` [Example 107, 2,5-difluoro-4-(2-fluorophenoxy)-N-(methylsulfonyl)benzamide] cannot be ordered by IC50: greater than 300 nM for the first, 9300 nM for the second.

Going from `Cc1cc(C(=O)NS(C)(=O)=O)ccc1Oc1cccc(Cl)c1` [Example 238, 4-(3-chlorophenoxy)-3-methyl-N-(methylsulfonyl)benzamide] to `CS(=O)(=O)NC(=O)c1ccc(Oc2ccc(Cl)cc2Cl)cc1` [Example 38, 4-(2,4-dichlorophenoxy)-N-(methylsulfonyl)benzamide], the IC50 rises from 960 nM to greater than 10000 nM.

`CC(C)c1ccccc1Oc1ccc(C(=O)NS(C)(=O)=O)cc1` [Example 169, 4-(2-isopropylphenoxy)-N-(methylsulfonyl)benzamide] and `Cn1ccc(-c2ccccc2Oc2ccc(C(=O)NS(C)(=O)=O)cc2)n1` [Example 197, 4-[2-(1-methyl-1H-pyrazol-3-yl)phenoxy]-N-(methylsulfonyl)benzamide] cannot be ordered by IC50: 21000 nM for the first, greater than 10000 nM for the second.

First: CS(=O)(=O)NC(=O)c1ccc(Sc2ccccc2Cl)cc1 [Example 323, 4-(2-chlorophenylthio)-N-(methylsulfonyl)benzamide]
Second: CS(=O)(=O)NC(=O)c1ccc(Sc2ccc(Cl)c(Cl)c2)cc1 [Example 317, 4-[(3,4-Dichlorophenyl)sulfanyl]-N-(methylsulfonyl)benzamide]
The IC50 of the first is 10-fold higher: 36000 nM for the first, 3500 nM for the second.

`COc1cc(F)ccc1Oc1cc(F)c(C(=O)NS(C)(=O)=O)cc1F` [Example 69, 2,5-difluoro-4-(4-fluoro-2-methoxyphenoxy)-N-(methylsulfonyl)benzamide] and `COc1cc(C)ccc1Oc1cc(F)c(C(=O)NS(C)(=O)=O)cc1F` [Example 85, 2,5-difluoro-4-(2-methoxy-4-methylphenoxy)-N-(methylsulfonyl)benzamide] cannot be ordered by IC50: 6200 nM for the first, greater than 1000 nM for the second.

`CS(=O)(=O)NC(=O)c1cc(F)c(Oc2cc(F)ccc2F)cc1F` [Example 89, 4-(2,5-difluorophenoxy)-2,5-difluoro-N-(methylsulfonyl)benzamide] and `CS(=O)(=O)NC(=O)c1cc(F)c(Oc2ccc(F)cc2C#N)cc1F` [Example 130, 4-(2-cyano-4-fluorophenoxy)-2,5-difluoro-N-(methylsulfonyl)benzamide] cannot be ordered by IC50: greater than 3000 nM for the first, greater than 3000 nM for the second.

First: CS(=O)(=O)NC(=O)c1ccc(Oc2cccc(OC(F)(F)F)c2)cc1 [Example 30, N-(methylsulfonyl)-4-[3-(trifluoromethoxy)phenoxy]benzamide]
Second: CS(=O)(=O)NC(=O)c1ccc(Oc2ccc(C#N)c(C(F)(F)F)c2)cc1 [Example 310, 4-[4-cyano-3-(trifluoromethyl)phenoxy]-N-(methylsulfonyl)benzamide]
The IC50 of the first is 4.3-fold lower: 760 nM for the first, 3300 nM for the second.

Going from `Cc1ccc(Oc2cc(F)c(C(=O)NS(C)(=O)=O)cc2F)cc1C` [Example 141, 4-(3,4-dimethylphenoxy)-2,5-difluoro-N-(methylsulfonyl)benzamide] to `CS(=O)(=O)NC(=O)c1cc(F)c(Oc2cccc(C#N)c2)cc1F` [Example 125, 4-(3-cyanophenoxy)-2,5-difluoro-N-(methylsulfonyl)benzamide], the IC50 rises from 2500 nM to greater than 3000 nM. The first is the more potent here.

First: COc1ccc(C)cc1Oc1ccc(C(=O)NS(C)(=O)=O)cc1 [Example 185, 4-(2-methoxy-5-methylphenoxy)-N-(methylsulfonyl)benzamide]
Second: Cc1ccc(Oc2ccc(C(=O)NS(C)(=O)=O)cc2F)cc1 [Example 217, 3-fluoro-4-(4-methylphenoxy)-N-(methylsulfonyl)benzamide]
The IC50 of the first is 5-fold higher: 21000 nM for the first, 4200 nM for the second. The second is the more potent here.

Going from `CS(=O)(=O)NC(=O)c1cc(F)c(Oc2ccc(Cl)cc2OC(F)(F)F)cc1F` [Example 73, 4-[4-chloro-2-(trifluoromethoxy)phenoxy]-2,5-difluoro-N-(methylsulfonyl)benzamide] to `COc1cc(OC(F)(F)F)ccc1Oc1cc(F)c(C(=O)NS(C)(=O)=O)cc1F` [Example 72, 2,5-difluoro-4-[2-methoxy-4-(trifluoromethoxy)phenoxy]-N-(methylsulfonyl)benzamide], the IC50 rises from 710 nM to greater than 1000 nM. The first is the more potent here.

Going from `CS(=O)(=O)NC(=O)c1ccc(Oc2ccc(F)cc2)c(Cl)c1` [Example 41, 3-chloro-4-(4-fluorophenoxy)-N-(methylsulfonyl)benzamide] to `CS(=O)(=O)NC(=O)c1cc(Cl)c(Oc2ccc(OC(F)F)c(Cl)c2)cc1F` [Example 51, 5-chloro-4-[3-chloro-4-(difluoromethoxy)phenoxy]-2-fluoro-N-(methylsulfonyl)benzamide], the IC50 falls from 660 nM to 260 nM (2.5-fold). The second is the more potent here.

Going from `CS(=O)(=O)NC(=O)c1cc(Cl)c(Oc2ccc(Cl)c(OC(F)(F)F)c2)cc1F` [Example 17, 5-chloro-4-[4-chloro-3-(trifluoromethoxy)phenoxy]-2-fluoro-N-(methylsulfonyl)benzamide] to `CS(=O)(=O)NC(=O)c1cc(F)c(Oc2ccc(Cl)c(C(F)(F)F)c2)c(F)c1` [Example 45, 4-(4-chloro-3-(trifluoromethyl)phenoxy)-3,5-difluoro-N-(methylsulfonyl)benzamide], the IC50 rises from 32 nM to 1100 nM (34-fold).

Compared with `CS(=O)(=O)NC(=O)c1cc(F)c(Oc2cc(Cl)cc(Cl)c2)cc1F` [Example 101, 4-(3,5-dichlorophenoxy)-2,5-difluoro-N-(methylsulfonyl)benzamide], `COc1ccc(Oc2cc(F)c(C(=O)NS(C)(=O)=O)cc2F)c(C#N)c1` [Example 116, 4-(2-cyano-4-methoxyphenoxy)-2,5-difluoro-N-(methylsulfonyl)benzamide] is higher in IC50: 1500 nM for the first, greater than 3000 nM for the second.
